Source: paper PMC7578299, “The antiviral effects of baloxavir marboxil against influenza A virus infection in ferrets” (Influenza and Other Respiratory Viruses, 2020)

Assay: Simulated plasma concentration of BXA (non-parametric superposition, Phoenix WinNonlin)
Design: species or system ferret
Conditions: for Ratio of BXA concentration to EC90: EC90 0.42 ng/mL; for Ratio of BXA concentration to Target concentration: target 6.85 ng/mL
Excerpt: Plasma concentrations of BXA after dosing of BXM twice daily were estimated using the non‐parametric superposition function in Phoenix WinNonlin software (https://onlinehelp.certara.com/phoenix/8.2/topics/nonparasuper.htm) based on the mean plasma concentrations of BXA following single‐dose administration of BXM. Dosing type was used as “Variable.” The computation method used for interpolation and extrapolation of untransformed data was selected as logarithm (Log).

[1] = two doses BXM 10 mg/kg, 24 hours after first dosing
[2] = two doses BXM 10 mg/kg, 48 hours after first dosing
[3] = two doses BXM 30 mg/kg, 24 hours after first dosing
[4] = two doses BXM 30 mg/kg, 48 hours after first dosing

Compound `O=C1c2c(O)c(=O)ccn2N([C@@H]2c3ccccc3SCc3c2ccc(F)c3F)[C@@H]2COCCN12` [BXA, baloxavir acid] has a Simulated plasma concentration (BXM two doses 10 mg/kg (0 and 12 h), 4 h) of 33.0 ng/mL, a Simulated plasma concentration (BXM two doses 10 mg/kg (0 and 12 h), 4.5 h) of 29.1 ng/mL and a Simulated plasma concentration (BXM two doses 10 mg/kg (0 and 12 h), 5 h) of 25.7 ng/mL. The Simulated plasma concentration (BXM two doses 10 mg/kg (0 and 12 h), 5.5 h) was 22.7 ng/mL, the Simulated plasma concentration (BXM two doses 10 mg/kg (0 and 12 h), 6 h) was 20.0 ng/mL and the Simulated plasma concentration (BXM two doses 10 mg/kg (0 and 12 h), 6.5 h) was 19.1 ng/mL. The Simulated plasma concentration (BXM two doses 10 mg/kg (0 and 12 h), 7 h) was 18.3 ng/mL, the Simulated plasma concentration (BXM two doses 10 mg/kg (0 and 12 h), 7.5 h) was 17.5 ng/mL and the Simulated plasma concentration (BXM two doses 10 mg/kg (0 and 12 h), 8 h) was 16.7 ng/mL. The Simulated plasma concentration (BXM two doses 10 mg/kg (0 and 12 h), 8.5 h) was 15.8 ng/mL, the Simulated plasma concentration (BXM two doses 10 mg/kg (0 and 12 h), 9 h) was 15.0 ng/mL and the Simulated plasma concentration (BXM two doses 10 mg/kg (0 and 12 h), 9.5 h) was 14.2 ng/mL. The Simulated plasma concentration (BXM two doses 10 mg/kg (0 and 12 h), 10 h) was 13.5 ng/mL, the Simulated plasma concentration (BXM two doses 10 mg/kg (0 and 12 h), 10.5 h) was 12.8 ng/mL and the Simulated plasma concentration (BXM two doses 10 mg/kg (0 and 12 h), 11 h) was 12.1 ng/mL. The Simulated plasma concentration (BXM two doses 10 mg/kg (0 and 12 h), 11.5 h) was 11.5 ng/mL, the Simulated plasma concentration (BXM two doses 10 mg/kg (0 and 12 h), 12 h (dosing)) was 10.9 ng/mL and the Simulated plasma concentration (BXM two doses 10 mg/kg (0 and 12 h), 12.5 h) was 43.5 ng/mL. For the same compound, the Simulated plasma concentration (BXM two doses 10 mg/kg (0 and 12 h), 13 h) was 65.9 ng/mL, the Simulated plasma concentration (BXM two doses 10 mg/kg (0 and 12 h), 13.5 h) was 64.9 ng/mL and the Simulated plasma concentration (BXM two doses 10 mg/kg (0 and 12 h), 24 h) was 13.9 ng/mL. It also gave a Simulated plasma concentration (BXM two doses 10 mg/kg (0 and 12 h), 47.5 h) of 1.16 ng/mL, a Simulated plasma concentration (BXM two doses 10 mg/kg (0 and 12 h), 48 h) of 1.10 ng/mL and a Simulated plasma concentration (BXM two doses 30 mg/kg (0 and 12 h), 2.5 h) of 316 ng/mL. The Simulated plasma concentration (BXM two doses 30 mg/kg (0 and 12 h), 3 h) was 292 ng/mL, the Simulated plasma concentration (BXM two doses 30 mg/kg (0 and 12 h), 3.5 h) was 269 ng/mL and the Simulated plasma concentration (BXM two doses 30 mg/kg (0 and 12 h), 4 h) was 248 ng/mL. For the same compound, the Simulated plasma concentration (BXM two doses 30 mg/kg (0 and 12 h), 4.5 h) was 236 ng/mL, the Simulated plasma concentration (BXM two doses 30 mg/kg (0 and 12 h), 5 h) was 224 ng/mL and the Simulated plasma concentration (BXM two doses 30 mg/kg (0 and 12 h), 5.5 h) was 213 ng/mL. It also gave a Simulated plasma concentration (BXM two doses 30 mg/kg (0 and 12 h), 6 h) of 202 ng/mL, a Simulated plasma concentration (BXM two doses 30 mg/kg (0 and 12 h), 6.5 h) of 190 ng/mL and a Simulated plasma concentration (BXM two doses 30 mg/kg (0 and 12 h), 7 h) of 179 ng/mL. The Simulated plasma concentration (BXM two doses 30 mg/kg (0 and 12 h), 7.5 h) was 169 ng/mL, the Simulated plasma concentration (BXM two doses 30 mg/kg (0 and 12 h), 8 h) was 159 ng/mL and the Simulated plasma concentration (BXM two doses 30 mg/kg (0 and 12 h), 8.5 h) was 146 ng/mL. It also gave a Simulated plasma concentration (BXM two doses 30 mg/kg (0 and 12 h), 9 h) of 134 ng/mL, a Simulated plasma concentration (BXM two doses 30 mg/kg (0 and 12 h), 9.5 h) of 123 ng/mL and a Simulated plasma concentration (BXM two doses 30 mg/kg (0 and 12 h), 10 h) of 112 ng/mL. The Simulated plasma concentration (BXM two doses 30 mg/kg (0 and 12 h), 10.5 h) was 103 ng/mL, the Simulated plasma concentration (BXM two doses 30 mg/kg (0 and 12 h), 11 h) was 94.5 ng/mL and the Simulated plasma concentration (BXM two doses 30 mg/kg (0 and 12 h), 11.5 h) was 86.6 ng/mL. It also gave a Simulated plasma concentration (BXM two doses 30 mg/kg (0 and 12 h), 12 h (dosing)) of 79.4 ng/mL, a Simulated plasma concentration (BXM two doses 30 mg/kg (0 and 12 h), 12.5 h) of 208 ng/mL and a Simulated plasma concentration (BXM two doses 30 mg/kg (0 and 12 h), 13 h) of 405 ng/mL. The Simulated plasma concentration (BXM two doses 30 mg/kg (0 and 12 h), 47.5 h) was 1.60 ng/mL, the Simulated plasma concentration (BXM two doses 30 mg/kg (0 and 12 h), 48 h) was 1.47 ng/mL and the “Ratio of BXA concentration to EC90” value [1] was “× 33.2”. For the same compound, the “Ratio of BXA concentration to Target concentration” value (shortened to “Ratio … to Target concentration”) [1] was “× 2.0”, the “Ratio of BXA concentration to EC90” value [2] was “× 2.6” and the “Ratio … to Target concentration” value [2] was “× 0.16”. The “Ratio of BXA concentration to EC90” value [3] was “× 213”, the “Ratio … to Target concentration” value [3] was “× 13.0” and the “Ratio of BXA concentration to EC90” value [4] was “× 3.5”. For the same compound, the “Ratio … to Target concentration” value [4] was “× 0.21”.
